One assay deals with T1, FLT3-ITD (Homo sapiens, UniProt P36888).
T1 construct: FLT3-ITD; Invitrogen #PV6190
T1 sequence (P36888 1-993): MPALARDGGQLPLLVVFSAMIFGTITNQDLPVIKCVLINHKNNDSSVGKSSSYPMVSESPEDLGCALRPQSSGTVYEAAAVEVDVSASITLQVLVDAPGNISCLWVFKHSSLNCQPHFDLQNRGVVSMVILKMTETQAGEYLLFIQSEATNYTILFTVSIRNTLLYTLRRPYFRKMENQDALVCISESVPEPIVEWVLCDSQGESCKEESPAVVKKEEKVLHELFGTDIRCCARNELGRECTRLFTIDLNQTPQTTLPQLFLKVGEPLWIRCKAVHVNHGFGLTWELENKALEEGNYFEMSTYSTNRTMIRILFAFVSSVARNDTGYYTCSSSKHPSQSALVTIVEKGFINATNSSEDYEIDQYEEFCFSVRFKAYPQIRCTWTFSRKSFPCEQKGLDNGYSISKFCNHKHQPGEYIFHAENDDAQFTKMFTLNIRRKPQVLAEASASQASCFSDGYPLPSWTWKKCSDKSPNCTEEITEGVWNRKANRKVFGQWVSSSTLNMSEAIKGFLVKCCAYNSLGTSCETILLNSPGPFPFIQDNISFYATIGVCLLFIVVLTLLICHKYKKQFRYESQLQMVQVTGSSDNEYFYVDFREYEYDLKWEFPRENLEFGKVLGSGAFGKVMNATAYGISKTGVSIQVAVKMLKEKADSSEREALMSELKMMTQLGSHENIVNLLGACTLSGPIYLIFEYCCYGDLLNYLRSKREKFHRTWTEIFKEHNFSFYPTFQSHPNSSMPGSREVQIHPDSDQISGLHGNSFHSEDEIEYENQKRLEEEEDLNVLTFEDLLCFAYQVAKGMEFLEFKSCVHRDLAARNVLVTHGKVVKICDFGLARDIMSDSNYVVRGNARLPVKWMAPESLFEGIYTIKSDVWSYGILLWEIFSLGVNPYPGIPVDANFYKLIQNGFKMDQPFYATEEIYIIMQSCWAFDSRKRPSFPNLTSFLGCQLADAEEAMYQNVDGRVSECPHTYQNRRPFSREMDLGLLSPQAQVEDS
Kind of assay: FLT3-ITD biochemical kinase assay (AlphaScreen). The essentials:
(§1)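 AlphaScreen read-out of tyrosine phosphorylation of a 30 nM biotinylated poly(Glu4-Tyr) substrate, captured on streptavidin donor and PY20 acceptor beads at room temperature. ATP for IC50 work was 100 μM with FLT3-ITD and 10 μM with FLT3-D835Y; reduced 580 nm proximity signal reflects kinase inhibition.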

A further assay has as its target c-Kit (Homo sapiens, UniProt P10721). Kind of assay: c-Kit biochemical assay (per US 2007/0032519). The method in brief:
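Biochemical kinase inhibition run per US 2007/0032519; values reported as binned IC50 ranges (0.0001–1 μM, 1–10 μM, 10–200 μM).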

In the next assay the target is T2, FLT3-D835Y (Homo sapiens, UniProt P36888, D835Y).
T2 construct: purchased Invitrogen PV3967
T2 sequence (P36888 27-993 D835Y): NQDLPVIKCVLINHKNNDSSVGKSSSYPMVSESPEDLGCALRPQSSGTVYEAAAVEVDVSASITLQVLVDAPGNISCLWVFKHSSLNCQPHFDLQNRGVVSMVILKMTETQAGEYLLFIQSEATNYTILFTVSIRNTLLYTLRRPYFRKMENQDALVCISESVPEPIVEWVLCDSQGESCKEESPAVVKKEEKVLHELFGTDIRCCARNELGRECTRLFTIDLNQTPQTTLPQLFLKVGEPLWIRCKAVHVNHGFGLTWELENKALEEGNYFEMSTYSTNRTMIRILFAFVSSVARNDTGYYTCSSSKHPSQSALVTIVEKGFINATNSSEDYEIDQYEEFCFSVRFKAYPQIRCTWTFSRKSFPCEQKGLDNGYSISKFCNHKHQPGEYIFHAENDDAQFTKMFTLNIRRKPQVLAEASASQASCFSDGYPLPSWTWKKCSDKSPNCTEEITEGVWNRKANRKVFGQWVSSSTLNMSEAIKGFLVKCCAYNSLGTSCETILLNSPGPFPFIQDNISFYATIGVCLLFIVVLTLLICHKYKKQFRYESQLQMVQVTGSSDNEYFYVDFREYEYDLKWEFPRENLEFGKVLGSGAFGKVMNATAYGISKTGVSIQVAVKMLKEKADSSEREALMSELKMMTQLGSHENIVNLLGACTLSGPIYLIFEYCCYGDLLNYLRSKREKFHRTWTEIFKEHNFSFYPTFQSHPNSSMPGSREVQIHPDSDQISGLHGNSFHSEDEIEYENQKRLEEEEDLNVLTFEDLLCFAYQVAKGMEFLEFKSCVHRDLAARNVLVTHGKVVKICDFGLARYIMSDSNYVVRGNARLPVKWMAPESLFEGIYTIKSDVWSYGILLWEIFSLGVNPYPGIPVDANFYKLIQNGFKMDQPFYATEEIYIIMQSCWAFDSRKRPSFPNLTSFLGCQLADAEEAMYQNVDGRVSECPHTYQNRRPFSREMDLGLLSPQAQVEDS
Kind of assay: FLT3-D835Y biochemical kinase assay (AlphaScreen). The method in brief:
as §1

Sequence of c-Kit (P10721 26-976): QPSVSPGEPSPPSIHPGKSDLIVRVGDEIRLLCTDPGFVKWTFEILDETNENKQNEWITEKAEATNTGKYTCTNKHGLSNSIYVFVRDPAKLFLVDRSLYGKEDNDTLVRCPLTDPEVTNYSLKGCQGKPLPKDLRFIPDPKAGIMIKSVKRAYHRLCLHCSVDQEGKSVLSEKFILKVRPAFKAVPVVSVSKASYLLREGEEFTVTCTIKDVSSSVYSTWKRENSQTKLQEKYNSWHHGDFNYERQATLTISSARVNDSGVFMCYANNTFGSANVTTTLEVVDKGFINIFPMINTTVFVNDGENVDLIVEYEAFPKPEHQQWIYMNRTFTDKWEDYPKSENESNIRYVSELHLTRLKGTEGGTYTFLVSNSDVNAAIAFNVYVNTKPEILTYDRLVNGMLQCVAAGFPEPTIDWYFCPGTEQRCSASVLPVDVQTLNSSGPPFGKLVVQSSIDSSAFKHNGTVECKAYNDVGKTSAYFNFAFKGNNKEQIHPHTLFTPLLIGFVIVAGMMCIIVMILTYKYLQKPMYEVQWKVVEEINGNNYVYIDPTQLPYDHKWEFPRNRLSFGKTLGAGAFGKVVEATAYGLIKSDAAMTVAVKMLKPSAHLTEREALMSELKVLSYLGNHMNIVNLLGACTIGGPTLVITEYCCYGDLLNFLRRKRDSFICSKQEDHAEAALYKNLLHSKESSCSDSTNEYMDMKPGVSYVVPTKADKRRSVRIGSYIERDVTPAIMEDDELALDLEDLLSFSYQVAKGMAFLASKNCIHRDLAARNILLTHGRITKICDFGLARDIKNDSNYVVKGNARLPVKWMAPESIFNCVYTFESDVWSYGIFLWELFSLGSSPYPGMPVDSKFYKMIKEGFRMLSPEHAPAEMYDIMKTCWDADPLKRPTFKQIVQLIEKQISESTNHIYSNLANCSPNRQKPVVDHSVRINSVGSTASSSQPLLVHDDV

For orientation: IC50 means the midpoint of a concentration-inhibition curve. Lower therefore signals inhibition by little substance. As to `Cc1cnc2[nH]cc(-c3ccc4ncn(C)c4c3)c2c1` [P-018, 1-methyl-6-(5-methyl-1H-pyrrolo[2,3-b]pyridin-3-yl)benzimidazole], the 50% inhibitory concentration (IC50) on FLT3-ITD was 0.0001 to 1 µM; against c-Kit, 1 to 10 µM; on FLT3-D835Y it was 0.0001 to 1 µM.
On to `Cn1cnc2ccc(-c3c[nH]c4ncc(OCC#N)cc34)cc21` [P-084, 2-[[3-(3-methylbenzimidazol-5-yl)-1H-pyrrolo[2,3-b]pyridin-5-yl]oxy]acetonitrile], for which the 50% inhibitory concentration (IC50) was 0.0001 to 1 µM against FLT3-ITD, 1 to 10 µM at c-Kit and 0.0001 to 1 µM against FLT3-D835Y.
Consider `CS(=O)(=O)Nc1cccc(-c2cnc3[nH]cc(-c4ccc5c(c4)N(CC(F)(F)F)CCO5)c3n2)c1` [P-087, N-[3-[7-[4-(2,2,2-trifluoroethyl)-2,3-dihydro-1,4-benzoxazin-6-yl]-5H-pyrrolo[2,3-b]pyrazin-2-yl]phenyl]methanesulfonamide], for which the IC50 on FLT3-ITD was in the range of 0.0001 to 1 µM; against c-Kit, 10 to 200 µM; at FLT3-D835Y, 0.0001 to 1 µM.
On to `COc1cnc2[nH]cc(-c3ccc4ncnc(OC)c4c3)c2c1` [P-043, 4-methoxy-6-(5-methoxy-1H-pyrrolo[2,3-b]pyridin-3-yl)quinazoline], for which the half-inhibitory concentration (IC50) against FLT3-ITD fell in the range of 0.0001 to 1 µM; against c-Kit it was 1 to 10 µM; against FLT3-D835Y, 0.0001 to 1 µM.
Take `Cn1cc(-c2ccc(-c3cnc4[nH]cc(-c5ccc6ncn(C(C)(C)C)c6c5)c4n3)cc2)cn1` [P-306, 7-(3-tert-butylbenzimidazol-5-yl)-2-[4-(1-methylpyrazol-4-yl)phenyl]-5H-pyrrolo[2,3-b]pyrazine]: the IC50 against FLT3-ITD fell in the range of 0.0001 to 1 µM; at c-Kit it was 1 to 10 µM; at FLT3-D835Y, 0.0001 to 1 µM.
For `Cn1cnc2ccc(-c3c[nH]c4ncc(-c5cccc(C(=O)NC6CC6)c5)cc34)cc21` [P-090, N-cyclopropyl-3-[3-(3-methylbenzimidazol-5-yl)-1H-pyrrolo[2,3-b]pyridin-5-yl]benzamide], the 50% inhibitory concentration (IC50) fell in the range of 0.0001 to 1 µM against FLT3-ITD, 10 to 200 µM on c-Kit and 0.0001 to 1 µM at FLT3-D835Y.
Take `COc1cc(-c2cnc3[nH]cc(-c4ccc5ncn(CC(F)(F)F)c5c4)c3n2)ccn1` [P-098, 2-(2-methoxy-4-pyridyl)-7-[3-(2,2,2-trifluoroethyl)benzimidazol-5-yl]-5H-pyrrolo[2,3-b]pyrazine]: the concentration for half-maximal inhibition (IC50) on FLT3-ITD fell in the range of 0.0001 to 1 µM; against c-Kit, 10 to 200 µM; at FLT3-D835Y, 0.0001 to 1 µM.
Turning to `CC1(COc2cnc3[nH]cc(-c4ccc5[nH]cnc5c4)c3c2)COC1` [P-008, 3-(1H-benzimidazol-5-yl)-5-[(3-methyloxetan-3-yl)methoxy]-1H-pyrrolo[2,3-b]pyridine], the figures for the IC50 at FLT3-ITD, against c-Kit and against FLT3-D835Y were 0.0001 to 1 µM, 1 to 10 µM and 1 to 10 µM, respectively.
For the compound `O=C(C1CC1)N1CC=C(c2cnc3[nH]cc(-c4ccc5ncn(C6CCCC6)c5c4)c3n2)C1` [P-126, [3-[7-(3-cyclopentylbenzimidazol-5-yl)-5H-pyrrolo[2,3-b]pyrazin-2-yl]-2,5-dihydropyrrol-1-yl]-cyclopropyl-methanone], the figures for the half-maximal inhibitory concentration (IC50) on FLT3-ITD, on c-Kit and against FLT3-D835Y were 0.0001 to 1 µM, 10 to 200 µM and 0.0001 to 1 µM, respectively.
For the compound `CC(=O)Nc1cccc(-c2cnc3[nH]cc(-c4ccc5ncn(C)c5c4)c3c2)c1` [P-116, N-[3-[3-(3-methylbenzimidazol-5-yl)-1H-pyrrolo[2,3-b]pyridin-5-yl]phenyl]acetamide], the IC50 fell in the range of 0.0001 to 1 µM at FLT3-ITD, 1 to 10 µM against c-Kit and 0.0001 to 1 µM against FLT3-D835Y.
On to `COc1cc(-c2cnc3[nH]cc(-c4ccc5ncn(C)c5c4)c3n2)ccn1` [P-045, 2-(2-methoxy-4-pyridyl)-7-(3-methylbenzimidazol-5-yl)-5H-pyrrolo[2,3-b]pyrazine], for which the IC50 at FLT3-ITD is 0.0001 to 1 µM; against c-Kit it was 10 to 200 µM; against FLT3-D835Y, 0.0001 to 1 µM.
Regarding `COC(=O)c1cc(-c2cnc3[nH]cc(-c4ccc5ncn(C)c5c4)c3c2)ccc1C` [P-119], the IC50 was 0.0001 to 1 µM against FLT3-ITD, 10 to 200 µM against c-Kit and 0.0001 to 1 µM against FLT3-D835Y.

The record behind these values is patent US10160755B2 (Plexxikon Inc., priority 2015, dated 2018).
